From paper PMC10098686, “Bright Molecular Strain Probe Templates for Reporting Protein–Protein Interactions” (Sensors (Basel, Switzerland), 2023)

Target: T1, Renilla luciferase 8 (RLuc8) (Renilla reniformis, UniProt P27652, A55T/C124A/S130A/K136R/A143M/M185V/M253L/S287L)
T1 construct: RLuc8 in pcDNA3.1(+), stably expressed in MDA-MB231 cells
T1 sequence (P27652 1-311 A55T/C124A/S130A/K136R/A143M/M185V/M253L/S287L): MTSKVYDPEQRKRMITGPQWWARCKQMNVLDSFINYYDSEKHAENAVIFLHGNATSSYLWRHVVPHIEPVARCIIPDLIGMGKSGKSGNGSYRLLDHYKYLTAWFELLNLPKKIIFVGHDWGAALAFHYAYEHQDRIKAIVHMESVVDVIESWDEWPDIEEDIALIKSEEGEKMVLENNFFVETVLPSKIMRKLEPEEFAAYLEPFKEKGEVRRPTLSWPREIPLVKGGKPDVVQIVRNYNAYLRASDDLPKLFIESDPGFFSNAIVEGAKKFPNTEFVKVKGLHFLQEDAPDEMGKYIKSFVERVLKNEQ
Experiment: bioluminescence imaging of MDA-MB231 cells expressing the luciferase
Assay type: cell-based
Details: stable cells

## Oc1ccc(Cc2nc3c(Cc4ccccc4)nc(-c4ccc(O)cc4)cn3c2O)cc1 [nCTZ]
  bioluminescence imaging of MDA-MB231 cells expressing the luciferase: exhibited the brightest signal when reacted with nCTZ
